According to patent US9061077B2 (Emory University, priority 2008, dated 2015):
Values joined by “and” are separate entries in the source; they are usually repeats but may differ in a detail not shown here. Equal values may be shown once. Read-outs that look alike come from different tables or passages of the source.

Tests used:
[1] = cited from earlier work
[2] = eight human volunteers, single ingested dose of 10 mg; cited from earlier work
[3] = humans, cited from earlier work
[4] = cited from earlier work; remark: listed apart in the source
[5] = Safety in healthy volunteers (vital signs, CBC, chemistry panel, urinalysis); assay type: in vivo, human; details: about 74 MBq, pre- and 24 hr post-injection
Description: Five healthy volunteers (3 male, 2 females; mean age±SD, 39.4±12.7 yrs; range 20-55 yrs) participated in this study. Inclusion criteria required the absence of any history of kidney and bladder diseases and a normal review of systems. Pregnancy was excluded in females by means of a urine pregnancy test.

red blood cells [6] = assay: Red cell uptake in healthy volunteers; assay type: in vitro ADME, human; details: normal volunteers, individual values and mean
[7] = Comparison of renal tracer clearances in human subjects relative to PAH (FIG. 4)
[8] = Cysteine and histidine challenge at 37 C (HPLC); details: 0.1 M cysteine and histidine, 4 h, listed as Na2[^99mTc(CO)3(NTA)]
Procedure: (§4) The buffered solution was evaluated by HPLC at 24 h to assess stability. […] (0.1 mL) were mixed with 0.1 M solutions of histidine and cysteine (0.9 mL) and incubated at 37° C.; aliquots were analyzed by HPLC at 1, 2 and 4 h to evaluate decomposition.

[9] = Plasma clearance in healthy volunteers (single injection, two-compartment model); assay type: in vivo, human; details: normal volunteers (n=5), individual values and mean
Description: Inclusion criteria required the absence of any history of kidney and bladder diseases and a normal review of systems. Pregnancy was excluded in females by means of a urine pregnancy test.

erythrocytes = assay: Erythrocyte uptake, rat blood; assay type: in vitro ADME; details: rats
Procedure: (§1) Arterial blood samples were placed in capillary tubes and centrifuged to determine the hematocrit. Samples of the whole blood and packed cells (about 0.3 mL each) were pipetted into counting tubes, weighed, and counted. The percent uptake in the erythrocytes was calculated from the whole blood (counts/g) and packed cells (counts/g). Percent erythrocyte uptake=[(counts/g in erythrocytes×hematocrit)/counts/g in whole blood]. No correction was made for plasma trapped in the red blood cells sample. PPB and erythrocyte uptake were calculated in duplicate and the mean values reported.

plasma protein [10] = assay: Plasma protein binding in healthy volunteers; assay type: in vitro ADME, human; details: normal volunteers, individual values and mean
[11] = Renal (plasma) clearance at steady-state infusion in rats; assay type: in vivo; details: steady-state co-infusion, average of three 10-min periods
Procedure: Two male rats were anesthetized as described above and placed on a heated surgical table. Following tracheostomy, the left jugular vein was cannulated with two pieces of PE-50 tubing (one for infusion of radiopharmaceuticals and one to infuse normal saline (5.8 mL/h) to maintain hydration and additional anesthetic (5 mg/h) as necessary). The right carotid artery was cannulated for blood sampling and the bladder was catheterized by use of PE-50 tubing. The core temperature of each animal was continually monitored throughout the study using a rectal temperature probe. […] (3.7 MBq/mL [100 μCi/mL]) and ^131I-OIH (1.85 MBq/mL [50 μCi/mL]), were co-infused at a flow rate of 1.7 ml/h for 60 mins to establish steady-state blood levels. […] The blood samples were centrifuged for 15 mins and plasma samples were obtained. Plasma clearance (CI) was determined by utilizing the equation: CI (mL/min)=UV/P, where U is the urine radioactivity concentration, V is the urine volume excreted per minute and P is the plasma radioactivity concentration.

[12] = In vitro stability in physiological phosphate buffer pH 7.4 (HPLC); details: phosphate buffer pH 7.4, 24 h, listed as Na2[^99mTc(CO)3(NTA)]
Procedure: as §4

[13] = background statement; cited from earlier work
plasma protein [14] = details: rats, cited from earlier work
[15] = cited from earlier work; remark: listed apart in the source
[16] = normal volunteers; cited from earlier work
red blood cells [17] = details: human blood, equilibrium conditions; cited from earlier work
[18] = Biodistribution in rats with renal pedicle ligation (renal failure model), Group B; assay type: in vivo, Sprague-Dawley rats; details: 60 min
Procedure: (§2) Rats in both groups were anesthetized with ketamine-xylazine (2 mg/kg of body weight) injected intramuscularly, with additional supplemental anesthetic as needed. In the first group of ten normal rats (Group A), the bladder was catheterized by use of heat-flared PE-50 tubing. In the second group of six rats (Group B), the abdomen was open by a midline incision and both renal pedicles were ligated to produce a model of renal failure; thus no urine was collected.
(§3) One additional aliquot (0.2 mL) for each time point was diluted to 100 mL, and three 1-mL portions of the resulting solution were used as standards.
The 6 Group B rats were sacrificed 60 mins after injection. Selected organs, blood, and all of the small and large intestines were collected and counted as described above. The percentage injected dose reported for the bowel was based on the combined counts in the small and large intestines.

[19] = Biodistribution in Sprague-Dawley rats, percentage of injected dose (Example 6, Table 1); assay type: in vivo; details: for Percentage of injected dose in bowel: combined stomach and intestine
Procedure: Five samples for the 10 mins study, and six samples for the 60 mins study were used; the one sample for each time point was diluted to 100 ml, and three 1-ml portions of the resulting solution were used as standards. Each rat was anesthetized with ketamine-xylazine (2 mg/kg of body weight) injected intramuscularly, with additional supplemental anesthetic as needed. The bladder was catheterized by use of heat-flared PE-50 tubing (Becton, Dickinson and Co.) for urine collection.
A blood sample was obtained, and the heart, lungs, spleen, liver, intestines, stomach, and kidneys were removed. The whole liver was weighed, and random sections were obtained for counting. Blood, urine, whole organs, and tissue samples were placed in tubes, and each sample was weighed. […] The percentage of the dose in each tissue or organ was calculated by dividing the counts in each tissue or organ by the total injected counts, using reference counts from an accurately diluted sample of the original injection. The value given for the bowel represented combined stomach and intestine activities.

[20] = Biodistribution in normal rats, Group A (Example 7, Table 3); assay type: in vivo, Sprague-Dawley rats; details: for Percent injected dose in bowel: duodenum and colon samples; for Percent injected dose in blood: normal rats Group A, n=5
Procedure: as §2, §3
In Group A, 5 animals were sacrificed at 10 min, and 5 animals were sacrificed at 60 mins after injection. A blood sample was obtained, and the kidneys, heart, lungs, spleen, whole stomach and sections of the duodenum and ascending colon were removed and placed in counting vials. The whole liver was weighed, and random sections were obtained for counting. Samples of blood and urine were also placed in counting vials and weighed. […] The percentage of the dose in each tissue or organ was calculated by dividing the counts in each tissue or organ by the total injected counts. The percentage injected dose reported for the bowel was based on the combined counts of the duodenum and colon samples.

plasma protein [21] = assay: Plasma protein binding by ultrafiltration, rat plasma; assay type: in vitro ADME; details: rats
Procedure: as §1

[22] = Renal extraction fraction in rats (arterial vs renal venous plasma); assay type: in vivo
Procedure: The extraction fraction (EF) was measured at the conclusion of the clearance measurements by obtaining a left renal venous blood sample (0.5 mL) followed immediately by a carotid artery sample (3 mL). Both blood samples were centrifuged immediately after collection to obtain plasma samples. EF was calculated by measuring the difference between the arterial and venous plasma sample: EF=(arterial concentration−venous concentration)/arterial concentration.

[23] = normal volunteers

## O=C(O)CN(CC(=O)O)CC(=O)O [NTA, nitrilotriacetic acid]
[1]; based on two-year rat studies, nephrotoxic no-observed-adverse-effect level
  Acceptable daily intake in drinking water (Health Canada): 10 μg/kg bw per day
[1]; rats and mice, two years
  Dose inducing urinary tract tumors: about 840 mg/kg bw per day
[2]
  Adverse effects (physical examination, blood chemistry, urinalysis): no evidence of adverse effects

## ^99mTc-DD-ethylene dicysteine
[3]; literature
  Clearance as percent of that of PAH: 60-65%

## technetium-99m tricarbonyl-nitrilotriacetic acid [^99mTc(CO)3(NTA)]
[4]
  pKa of the pendant carboxylic acid: approximately 3
[5]
  Toxicity (blood pressure, heart rate, temperature, CBC, chemistry panel, urine analysis): no evidence of any toxicity
Red blood cells [6]
  RBC (red cell uptake): 12%
Red blood cells [6]; listed as 99mTc-NTA
  RBC (red cell uptake): 6% and 15% and 20% and 16% and 4%
Red blood cells [6]; listed as 99mTc-NTA, mean
  RBC (red cell uptake): 12%
[7]
  Clearance relative to PAH (PAH assigned 100%): about 90%
[8]
  Stability to cysteine and histidine challenge: no degradation
[9]
  Plasma clearance, Cl: 480 mL/min
[9]; listed as 99mTc-NTA
  Plasma clearance, Cl: 477.1 mL/min and 607.9 mL/min and 388.5 mL/min and 434.2 mL/min and 491.8 mL/min
[9]; listed as 99mTc-NTA, mean
  Plasma clearance, Cl: 479.90 mL/min
erythrocytes; listed as Na2[^99mTc(CO)3(NTA)]
  Erythrocyte (red cell) uptake: 7±2% and 7%
Plasma protein [10]
  PPB (plasma protein binding): 45%
Plasma protein [10]; listed as 99mTc-NTA
  PPB (plasma protein binding): 39% and 40% and 50% and 42% and 53%
[11]
  Plasma clearance: 3.08 mL/min/100 g
[12]
  Stability at physiological pH: stable for 24 h

## O=C([O-])CN(CCN(CC(=O)[O-])CC(=O)[O-])CCN(CC(=O)[O-])CC(=O)[O-].[99Tc+4] [^99mTc-DTPA]
[13]
  Extraction fraction (EF): 20%

## O=C([O-])CN=C([O-])CN=C([O-])CN=C([O-])C[S-].[O-2].[Tc+4] [^99mTc-MAG3, technetium-99m mercaptoacetyltriglycine]
[13]
  Extraction fraction (EF): 50-60%
Plasma protein [14]; before infusion
  Protein binding: 78%
Plasma protein [14]; following PAH infusion
  Protein binding: 44%
Plasma protein [14]; following ammonium chloride infusion
  Protein binding: 63%
Plasma protein [14]; following mannitol infusion
  Protein binding: 42%
Plasma protein [14]; following sodium bicarbonate infusion
  Protein binding: 65%
[7]
  Clearance relative to PAH (PAH assigned 100%): substantially less than that of PAH
[7]; listed as 99mTcMAG3
  Clearance relative to PAH (PAH assigned 100%): substantially less
[3]
  Clearance as multiple of the clearance of 99mTc-DTPA: 2-2.5 times
[15]; fasting rats
  Hepatobiliary clearance: 11.7%
[15]; rats with free access to food
  Hepatobiliary clearance: 6.6%
[16]
  Injected dose transported into the small intestine via the hepatobiliary system: 0.5-1.0%

## O=C(O)CNC(=O)c1ccccc1[131I] [^131I-OIH, ^131I-ortho-iodohippurate]
Red blood cells [17]
  Fraction bound to or inside red blood cells: 15-20%
[18]; Group B
  Percent injected dose in kidney: 0.8 ± 0.2%
  Percent injected dose in liver: 9.7 ± 1.7%
[18]; Group B, small and large intestines
  Percent injected dose in bowel: 14.6% and 14.6 ± 2.8%
[18]; renal pedicle ligation Group B, n=6
  Percent injected dose in blood: 15.1% and 15.1 ± 0.9%
Red blood cells [6]
  RBC (red cell uptake): 20% and 15% and 21% and 25% and 24% and 14%
[19]; 10 min
  Percentage of injected dose in heart: 0.2 ± 0.1%
  Percentage of injected dose in kidney: 5.6 ± 0.6%
  Percentage of injected dose in liver: 4.0 ± 0.7%
  Percentage of injected dose in lung: 0.5 ± 0.2%
  Percentage of injected dose in urine: 53.2 ± 7.2%
  Percentage of injected dose in bowel: 2.5 ± 0.5%
[19]; 10 min post-injection, n=5
  Percentage of injected dose in blood: 5.6 ± 1.0%
[19]; 60 min
  Percentage of injected dose in heart: 0.0 ± 0.0%
  Percentage of injected dose in kidney: 0.5 ± 0.0%
  Percentage of injected dose in liver: 0.7 ± 0.2%
  Percentage of injected dose in lung: 0.1 ± 0.1%
  Percentage of injected dose in urine: 91.4 ± 3.7%
  Percentage of injected dose in bowel: 1.7 ± 0.7%
[19]; 60 min post-injection, n=6
  Percentage of injected dose in blood: 0.5 ± 0.0%
[20]; Group A, 10 min
  Percent injected dose in kidney: 5.6 ± 0.6%
  Percent injected dose in liver: 4.0 ± 0.7%
  Percent injected dose in urine: 53.2 ± 7.2%
  Percent injected dose in bowel: 2.2 ± 0.4%
[20]; Group A, 60 min
  Mean total injected activity present in heart, lungs, spleen, blood and liver: 1.1%
  Percent injected dose in kidney: 0.5 ± 0.0%
  Percent injected dose in liver: 0.6 ± 0.3%
  Percent injected dose in urine: 91.4 ± 3.7%
  Percent injected dose in bowel: 1.0 ± 0.5%
[20]; 10 min
  Percent injected dose in blood: 5.6 ± 1.0%
[20]; 60 min
  Percent injected dose in blood: 0.5 ± 0.0%
Plasma protein [21]
  Plasma protein binding: 44±10%
[22]
  Extraction fraction: 67.9±6.1% and 67.9%
[7]
  Clearance relative to PAH (PAH assigned 100%): about 90%
[9]
  Plasma clearance, Cl: 482 mL/min and 423.4 mL/min and 433.4 mL/min and 481.94 mL/min and 497.49 mL/min and 442 mL/min and 613.4 mL/min
erythrocytes
  Erythrocyte (red cell) uptake: 35±1% and 35%
Plasma protein [10]
  PPB (plasma protein binding): 77% and 74% and 79%
[23]; 30 minutes
  Urine 30 min (percent dose excreted): 80% and 74% and 78% and 55% and 64%
[23]; collection time not given (voids at 30, 90, 180 min)
  Urine (percent dose in urine): 98% and 93% and 96% and 83% and 81%
[11]
  Plasma clearance: 2.96 mL/min/100 g
